Source: patent publication US20220105188A1, “TARGET PROTEIN EED DEGRADATION-INDUCING DEGRADUCER, PREPARATION METHOD THEREOF, AND PHARMACEUTICAL COMPOSITION FOR PREVENTING OR TREATING DISEASES RELATED TO EED, EZH2, OR PRC2, COMPRISING SAME AS ACTIVE INGREDIENT” (KOREA RESEARCH INSTITUTE OF CHEMICAL TECHNOLOGY, priority 2019, published 2022)

Biological target: T1, EED (Homo sapiens, UniProt O75530)
T1 construct: 2×10^5 Hela cells were injected into a 12-well plate; endogenous in cells; host or cells: HeLa
Assay: EED Proteolytic Activity Evaluation 2 (western blot, Hela cells)
Type: cell-based
Details: 1 nM, 10 nM, 100 nM and 1000 nM, 20 hours of treatment
Procedure: [Experiment 2] EED Proteolytic Activity Evaluation 2
In order to evaluate the EED proteolytic activity of the compound according to the present invention, an experiment was conducted as follows.
Specifically, 2×10^5 Hela cells were injected into a 12-well plate, and after 8 hours of stabilization, each well was treated with the example compounds to have final concentrations of 1 nM, 10 nM, 100 nM, and 1000 nM. One well was treated with the volume of DMSO contained in the sample corresponding to the highest concentration in the experimental group. After 20 hours of treatment, the cells were collected and lysed using 80 μl of SDS Lysis buffer (50 mM Tris pH8.0, 1% SDS, 1 mM EDTA, 0.5 mM PMSF, and protease inhibitor cocktail) and then sonication (30 sec on/59 sec off), 5 cycles) to prepare a cell lysate, followed by protein quantification through BCA, followed by Western blot, and the results are shown in Table 3. (Maximum EED degradation rate: A: >50%, B: 25-50%, C: <25%)

T1 sequence (O75530 whole entry): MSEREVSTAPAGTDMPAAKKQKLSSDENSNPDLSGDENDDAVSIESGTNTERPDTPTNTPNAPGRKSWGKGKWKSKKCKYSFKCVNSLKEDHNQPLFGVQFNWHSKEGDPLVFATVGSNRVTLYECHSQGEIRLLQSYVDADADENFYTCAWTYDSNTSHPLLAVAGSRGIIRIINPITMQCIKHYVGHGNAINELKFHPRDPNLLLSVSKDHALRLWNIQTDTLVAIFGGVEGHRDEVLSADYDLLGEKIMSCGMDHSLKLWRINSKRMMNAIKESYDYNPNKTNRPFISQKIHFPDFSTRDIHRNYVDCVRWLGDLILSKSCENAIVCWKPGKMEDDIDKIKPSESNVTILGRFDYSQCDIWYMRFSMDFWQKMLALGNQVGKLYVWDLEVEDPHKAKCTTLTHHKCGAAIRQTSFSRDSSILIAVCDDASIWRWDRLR

Compound	EED degradation rate (Maximum EED degradation rate)
Cc1cccc(F)c1CN1C[C@H](c2ccc(N3CCN(C(=O)CC4CCN(C(=O)CNc5cccc6c5C(=O)N(C5CCC(=O)NC5=O)C6=O)CC4)CC3)cc2)[C@@H](N(C)C)C1 (stereo partly drawn) [Example 144, 4-((2-(4-(2-(4-(4-((3S,4R)-4-(dimethylamino)-1-(2-fluoro-6-methylbenzyl)pyrrolidin-3-yl)phenyl)piperazin-1-yl)-2-oxoethyl)piperidin-1-yl)-2-oxoethyl)amino)-2-(2,6-dioxopiperidin-3-yl)isoindolin-1,3-dione]	A (A: >50%)
Cc1cccc(F)c1CN1C[C@H](c2ccc(N3CCN(CCC4CCN(c5ccc6c(c5)C(=O)N(C5CCC(=O)NC5=O)C6=O)CC4)CC3)cc2)[C@@H](N(C)C)C1 (stereo partly drawn) [Example 154, 5-(4-(2-(4-(4-((3S,4R)-4-(dimethylamino)-1-(2-fluoro-6-methylbenzyl)pyrrolidin-3-yl)phenyl)piperazin-1-yl)ethyl)piperidin-1-yl)-2-(2,6-dioxopiperidin-3-yl)isoindolin-1,3-dione]	A (A: >50%)
Cc1cccc(F)c1CN1C[C@H](c2ccc(N3CCN(C(=O)CCC4CCN(c5cccc6c5C(=O)N(C5CCC(=O)NC5=O)C6=O)CC4)CC3)cc2)[C@@H](N(C)C)C1 (stereo partly drawn) [Example 141, 4-(4-(3-(4-(4-((3S,4R)-4-(dimethylamino)-1-(2-fluoro-6-methylbenzyl)pyrrolidin-3-yl)phenyl)piperazin-1-yl)-3-oxopropyl)piperidin-1-yl)-2-(2,6-dioxopiperidin-3-yl)isoindolin-1,3-dione]	B (B: 25-50%)
Cc1cccc(F)c1CN1C[C@H](c2ccc(N3CCN(CC4CCN(CC5CCN(c6ccc7c(c6)C(=O)N(C6CCC(=O)NC6=O)C7=O)CC5)CC4)CC3)cc2)[C@@H](N(C)C)C1 (stereo partly drawn) [Example 134, 5-(4-((4-((4-(4-((3S,4R)-4-(dimethylamino)-1-(2-fluoro-6-methylbenzyl)pyrrolidin-3-yl)phenyl)piperazin-1-yl)methyl)piperidin-1-yl)methyl)piperidin-1-yl)-2-(2,6-dioxopiperidin-3-yl)isoindolin-1,3-dione]	B (B: 25-50%)
Cc1cccc(F)c1CN1C[C@H](c2ccc(N3CCN(C(=O)CCCCCCCNc4ccc5c(c4)C(=O)N(C4CCC(=O)NC4=O)C5=O)CC3)cc2)[C@@H](N(C)C)C1 (stereo partly drawn) [Example 126, 5-((8-(4-(4-((3S,4R)-4-(dimethylamino)-1-(2-fluoro-6-methylbenzyl)pyrrolidin-3-yl)phenyl)piperazin-1-yl)-8-oxooctyl)amino)-2-(2,6-dioxopiperidin-3-yl)isoindolin-1,3-dione]	B (B: 25-50%)
O=C(CNc1ccc2nnn(C3CCC(=O)NC3=O)c(=O)c2c1)NCCOCCOCCN1CCC(n2cc(-c3cnc(NCc4ccco4)n4cnnc34)cn2)CC1 (centres unmarked) [Example 130, 2-((3-(2,6-dioxopiperidin-3-yl)-4-oxo-3,4-dihydrobenzo[d][1,2,3]triazin-6-yl)amino)-N-(2-(2-(2-(4-(4-(5-((furan-2-ylmethyl)amino)-[1,2,4]triazolo[4,3-c]pyrimidin-8-yl)-1H-pyrazol-1-yl)piperidin-1-yl)ethoxy)ethoxy)ethyl)acetamide]	C (C: <25%)
Cc1cccc(F)c1CN1C[C@H](c2ccc(N3CCN(C(=O)CCC4CCN(C(=O)CNc5ccc6c(c5)C(=O)N(C5CCC(=O)NC5=O)C6=O)CC4)CC3)cc2)[C@@H](N(C)C)C1 (stereo partly drawn) [Example 140, 5-((2-(4-(3-(4-(4-((3S,4R)-4-(dimethylamino)-1-(2-fluoro-6-methylbenzyl)pyrrolidin-3-yl)phenyl)piperazin-1-yl)-3-oxopropyl)piperidin-1-yl)-2-oxoethyl)amino)-2-(2,6-dioxopiperidin-3-yl)isoindolin-1,3-dione]	A (A: >50%)
Cc1cccc(F)c1CN1C[C@H](c2ccc(N3CCN(C(=O)CCCNc4ccc5c(c4)C(=O)N(C4CCC(=O)NC4=O)C5=O)CC3)cc2)[C@@H](N(C)C)C1 (stereo partly drawn) [Example 124, 5-((4-(4-(4-((3S,4R)-4-(dimethylamino)-1-(2-fluoro-6-methylbenzyl)pyrrolidin-3-yl)phenyl)piperazin-1-yl)-4-oxobutyl)amino)-2-(2,6-dioxopiperidin-3-yl)isoindolin-1,3-dione]	B (B: 25-50%)
Cc1cccc(F)c1CN1C[C@H](c2ccc(N3CCN(C(=O)CCC4CCN(C(=O)CNc5cccc6c5C(=O)N(C5CCC(=O)NC5=O)C6=O)CC4)CC3)cc2)[C@@H](N(C)C)C1 (stereo partly drawn) [Example 149, 4-((2-(4-(3-(4-(4-((3S,4R)-4-(dimethylamino)-1-(2-fluoro-6-methylbenzyl)pyrrolidin-3-yl)phenyl)piperazin-1-yl)-3-oxopropyl)piperidin-1-yl)-2-oxoethyl)amino)-2-(2,6-dioxopiperidin-3-yl)isoindolin-1,3-dione]	B (B: 25-50%)
Cc1cccc(F)c1CN1C[C@H](c2ccc(N3CCN(C(=O)CCC4CCN(c5ccc6c(c5)C(=O)N(C5CCC(=O)NC5=O)C6=O)CC4)CC3)cc2)[C@H](N(C)C)C1 (stereo partly drawn) [Example 133, 5-(4-(3-(4-(4-((3S,4S)-4-(dimethylamino)-1-(2-fluoro-6-methylbenzyl)pyrrolidin-3-yl)phenyl)piperazin-1-yl)-3-oxopropyl)piperidin-1-yl)-2-(2,6-dioxopiperidin-3-yl)isoindolin-1,3-dione]	A (A: >50%)
Cc1cccc(F)c1CN1C[C@H](c2ccc(N3CCN(C(=O)CC4CCN(C(=O)CNc5ccc6c(c5)C(=O)N(C5CCC(=O)NC5=O)C6=O)CC4)CC3)cc2)[C@@H](N(C)C)C1 (stereo partly drawn) [Example 146, 5-((2-(4-(2-(4-(4-((3S,4R)-4-(dimethylamino)-1-(2-fluoro-6-methylbenzyl)pyrrolidin-3-yl)phenyl)piperazin-1-yl)-2-oxoethyl)piperidin-1-yl)-2-oxoethyl)amino)-2-(2,6-dioxopiperidin-3-yl)isoindolin-1,3-dione]	A (A: >50%)
O=C(CNc1ccc2c(c1)C(=O)N(C1CCC(=O)NC1=O)C2=O)NCCOCCOCCN1CCC(n2cc(-c3cnc(NCc4ccco4)n4cnnc34)cn2)CC1 (centres unmarked) [Example 129, 2-((2-(2,6-dioxopiperidin-3-yl)-1,3-dioxoisoindolin-5-yl)amino)-N-(2-(2-(2-(4-(4-(5-((furan-2-ylmethyl)amino)-[1,2,4]triazolo[4,3-c]pyrimidin-8-yl)-1H-pyrazol-1-yl)piperidin-1-yl)ethoxy)ethoxy)ethyl)acetamide]	C (C: <25%)
O=C1CCC(N2C(=O)c3ccc(NCC(=O)N4CCC(CN5CCC(n6cc(-c7cnc(NCc8ccco8)n8cnnc78)cn6)CC5)CC4)cc3C2=O)C(=O)N1 (centres unmarked) [Example 127, 2-(2,6-dioxopiperidin-3-yl)-5-((2-(4-((4-(4-(5-((furan-2-ylmethyl)amino)-[1,2,4]triazolo[4,3-c]pyrimidin-8-yl)-1H-pyrazol-1-yl)piperidin-1-yl)methyl)piperidin-1-yl)-2-oxoethyl)amino)isoindolin-1,3-dione]	C (C: <25%)
Cc1cccc(F)c1CN1C[C@H](c2ccc(N3CCN(CCC4CCN(C(=O)COc5ccc6c(c5)C(=O)N(C5CCC(=O)NC5=O)C6=O)CC4)CC3)cc2)[C@@H](N(C)C)C1 (stereo partly drawn) [Example 150, 5-(2-(4-(2-(4-(4-((3S,4R)-4-(dimethylamino)-1-(2-fluoro-6-methylbenzyl)pyrrolidin-3-yl)phenyl)piperazin-1-yl)ethyl)piperidin-1-yl)-2-oxoethoxy)-2-(2,6-dioxopiperidin-3-yl)isoindolin-1,3-dione]	A (A: >50%)
Cc1cccc(F)c1CN1C[C@H](c2ccc(N3CCN(C(=O)CC4CCN(c5cccc6c5C(=O)N(C5CCC(=O)NC5=O)C6=O)CC4)CC3)cc2)[C@@H](N(C)C)C1 (stereo partly drawn) [Example 142, 4-(4-(2-(4-(4-((3S,4R)-4-(dimethylamino)-1-(2-fluoro-6-methylbenzyl)pyrrolidin-3-yl)phenyl)piperazin-1-yl)-2-oxoethyl)piperidin-1-yl)-2-(2,6-dioxopiperidin-3-yl)isoindolin-1,3-dione]	C (C: <25%)
Cc1cccc(F)c1CN1C[C@H](c2ccc(N3CCN(C(=O)CCCCCNc4ccc5c(c4)C(=O)N(C4CCC(=O)NC4=O)C5=O)CC3)cc2)[C@@H](N(C)C)C1 (stereo partly drawn) [Example 138, 5-((6-(4-(4-((3S,4R)-4-(dimethylamino)-1-(2-fluoro-6-methylbenzyl)pyrrolidin-3-yl)phenyl)piperazin-1-yl)-6-oxohexyl)amino)-2-(2,6-dioxopiperidin-3-yl)isoindolin-1,3-dione]	B (B: 25-50%)
Cc1cccc(F)c1CN1C[C@H](c2ccc(N3CCN(CCOCCOCCOCCNC(=O)CNc4ccc5c(c4)C(=O)N(C4CCC(=O)NC4=O)C5=O)CC3)cc2)[C@@H](N(C)C)C1 (stereo partly drawn) [Example 135, N-(2-(2-(2-(2-(4-(4-((3S,4R)-4-(dimethylamino)-1-(2-fluoro-6-methylbenzyl)pyrrolidin-3-yl)phenyl)piperazin-1-yl)ethoxy)ethoxy)ethoxy)ethyl)-2-((2-(2,6-dioxopiperidin-3-yl)-1,3-dioxoisoindolin-5-yl)amino)acetamide]	B (B: 25-50%)
